Tested on: pyramidal gap junctions
Test: Patch clamp recordings of electrically coupled pyramidal pairs in cortical slices, bath-applied soluble Aβ
Assay type: cell-based, rats and ferrets
Conditions: for washout time to restore gap junctional activity (reversibility): peptide washout

Substance | inhibition of pyramidal gap junction activity, compared between species | washout time to restore gap junctional activity (reversibility) [min] | reduction of postjunctional responses (1 μM bath-applied for 10 minutes, FIG. 2) [%] | effect on presynaptic action potentials (application of Aβ1-40, FIG. 2)
β-Amyloid [25-35] (GSNKGAIIGLM) [Aβ25-35] | same effect as Aβ 1-40 and Aβ 1-42 | 10 | – | –
β-Amyloid [Aβ1-40, β-Amyloid [1-40]] | – | 10 | ~50 | not influenced
